In general, LD50 refers to the dose at which mortality reaches 50%.

Where “and” joins values, the source holds several entries; their conditions need not be identical. Equal entries are not always repeated.

Series [1] deals with Rattus norvegicus. Particulars: for NOEL / LOEL: Hershberger; for LEL: uterotrophic, Active.
In series [2] the test system is Rattus norvegicus. Particulars: acute; oral; gavage; Harlan Sprague Dawley.
The subject of series [3] is Oryctolagus sp. The settings on record: acute; dermal; New Zealand.
Where [4] appears, read: duration: 10 days, oral, gavage, Sprague-Dawley, inactive + Negative + Negative + neither + negative.
Setting [5] is: duration: 3 days, injection, subcutaneous.
[6] abbreviates: duration: 12 days, injection, subcutaneous, Wistar, active + Androgenic + androgenic.
The mark [7] stands for this setting: duration: 10 days, oral, gavage, Sprague-Dawley, active + Antiandrogenic + anti-androgenic.

On to `Oc1ccccc1-c1ccccc1` [2-Phenylphenol], for which, in series [1] (duration: 10 days, oral, gavage, Sprague-Dawley, inactive + Negative + Negative + anti-androgenic + decrease in ASTs, NS (1.6 d) delay PPS / accompanied by "minor" increase in liver wt and…), the NOEL came out at 250 mg/kg-day.

In series [1] (duration: 3 days, oral), `C[C@H]1CCC[C@@H](O)CCCCCc2cc(O)cc(O)c2C(=O)O1` [Taleranol] showed an LEL of 0.06 mg/day.

Consider `CC(C)[C@H](C(=O)O[C@H](C#N)c1cccc(Oc2ccccc2)c1)c1ccc(Cl)cc1` [Esfenvalerate], for which, in series [1] (setting [4]), the NOEL came to 9 mg/kg-day.

Take `CC[C@H](C)[C@H]1O[C@]2(C=C[C@@H]1C)C[C@@H]1C[C@@H](C/C=C(\C)[C@@H](O[C@H]3C[C@H](OC)[C@@H](O[C@H]4C[C@H](OC)[C@@H](O)[C@H](C)O4)[C@H](C)O3)[C@@H](C)/C=C/C=C3\CO[C@@H]4[C@H](O)C(C)=C[C@@H](C(=O)O1)[C@]34O)O2.CO[C@H]1C[C@H](O[C@H]2[C@H](C)O[C@@H](O[C@@H]3/C(C)=C/C[C@@H]4C[C@@H](C[C@]5(C=C[C@H](C)[C@@H](C(C)C)O5)O4)OC(=O)[C@@H]4C=C(C)[C@@H](O)[C@H]5OC/C(=C\C=C\[C@@H]3C)[C@]54O)C[C@@H]2OC)O[C@@H](C)[C@@H]1O` [Abamectin]: the NOEL in series [1] (duration: 10 days, oral, gavage, Sprague-Dawley, inactive + Negative + Negative + anti-androgenic + negative) is 1.5 mg/kg-day.

On to `CC(C)(C)NC(=O)[C@H]1CC[C@H]2[C@@H]3CC[C@H]4NC(=O)C=C[C@]4(C)[C@H]3CC[C@]12C` [Finasteride], for which the LOEL was 20 mg/kg-day and 25 mg/kg-day in series [1] (duration: 5 days, oral, gavage, Sprague-Dawley, active + Antiandrogenic + anti-androgenic + decreased age at PPS at 20mg/kg, increased at 80 mg/kg (with 7.8% increased liver wt at high …); 20 mg/kg-day and 25 mg/kg-day in series [1] (duration: 7 days, oral, gavage, Sprague-Dawley, active + Antiandrogenic + anti-androgenic + decreased age at PPS at 20mg/kg, increased at 80 mg/kg (with 7.8% increased liver wt at high …).

As for `CCCCC(CC)CN1C(=O)C2C3C=CC(C3)C2C1=O` (stereo unspecified) [Octylbicycloheptenedicarboximide], the NOEL in series [1] (setting [4]) is 700 mg/kg-day.

In turn, `O=c1oc2cc(O)ccc2c2oc3cc(O)ccc3c12` [Coumestrol] displayed an LEL in series [1] (setting [5]) of 1 mg/day.

On to `C[C@]12C=CC(=O)C[C@@H]1CC[C@@H]1[C@@H]2CC[C@@]2(C)[C@H]1CC[C@]2(C)O` [Methyl-1-testosterone], for which, in series [1] (duration: 10 days, injection, subcutaneous, Wistar, active + Androgenic + androgenic), the LOEL was 1 mg/kg-day. Also, in series [1] (setting [6]), the LOEL came to 0.3 mg/kg-day and the NOEL was 0.03 mg/kg-day.

In series [1] (duration: 3 days, oral), `CCOC(=O)C(C)(C)Oc1ccc(Cl)cc1` [Clofibrate] returned an LEL of 4 mg/kg-day.

Take `CC#C[C@]1(O)CC[C@H]2[C@@H]3CCC4=CC(=O)CCC4=C3[C@@H](c3ccc(N(C)C)cc3)C[C@@]21C` [Mifepristone]: in series [1] (setting [7]), the LOEL was determined as 25 mg/kg-day and the NOEL turned out to be 10 mg/kg-day. The molecule also registered an LEL in series [1] (duration: 4 days, injection, intraperitoneal) of 100 mg/kg-day.

As to `COC(=O)Nc1nc2ccccc2[nH]1` [Carbendazim], in series [1] (duration: 10 days, oral, gavage, Wistar, inactive + Negative + Negative + Neither + effects on fertility, reduced testis/epididymal wt and abnormal histo in P0, fertility), the NOEL was 100 mg/kg-day. In addition, the LD50 in series [2] was over 5050 mg/kg.

Turning to `CC(C)CCCCCCCOP(=S)([S-])OCCCCCCCC(C)C.CC(C)CCCCCCCOP(=S)([S-])OCCCCCCCC(C)C.[Zn+2]`, in series [3], the LD50 was over 8000 mg/kg.

In the case of `Cl.O=C(c1ccc(OCCN2CCCCC2)cc1)c1c(-c2ccc(O)cc2)sc2cc(O)ccc12` [Raloxifene hydrochloride], the LEL in series [1] (setting [5]) worked out at 0.5 mg/kg-day.

In the case of `C[C@]12CC[C@@H]3c4ccc(OC(=O)c5ccccc5)cc4CC[C@H]3[C@@H]1CC[C@@H]2O` [Estradiol benzoate], the LOEL in series [1] (duration: 7 days, injection, subcutaneous, Wistar, active + Androgenic + androgenic) turned out to be 0.0025 mg/kg-day.

In the case of `CCCSP(=O)(OCC)SCCC` [Ethoprop], the NOEL in series [1] (duration: 10 days, oral, gavage, Sprague-Dawley, active + Negative + Antiandrogenic + anti-androgenic + decrease in serum testosterone, decrease in epididymal wt at 6 mg/kg / thyroid …) was found to be 8 mg/kg-day.
